The text below walks through data of patent publication US20120014911A1, “Regulators of the Interferon-Alpha Receptor 1 (IFNAR1) Chain of the Interferon Receptor” (priority 2009, published 2012).

Counter-ions that a name gives are not always drawn. Like-named read-outs stand apart in the source and are kept apart here.

In experiment [1] the test system is ligand-inducible IFNAR1 degron kinase activity. The experiment in a line: Phosphorylation-binding assay: GST-IFNAR1 phosphorylated by CK1α-depleted lysates of IFN-α-treated cells, then binding of 35S-labeled β-Trcp2. The class given is biochemical, human. Conditions: inhibitor added in vitro: H89 200 nM, BAY43-9006 50 nM, Bis-I 25 nM, Gö6976 25 nM, LY294002 1.5 μM, SP600125 100 nM, D4476 400 nM, SB203580 100 nM. On the procedure:
For some binding assays, the lysates from 293T cells (treated for various tunes with IFN-α, 2000 IU/mL) were depleted of CK1α (as described previously (Liu, et al., 2009, Mal Cell Biol 29(24):6401-12) were incubated with GST-IFNAR1 proteins (wild type or S535,539A mutant that migrates slower on SDS-PAGE due to the presence of four additional amino acids in the linker), ATP and kinase inhibitors (as indicated) for 30 min at 30° C. After that, GST-IFNAR1 were purified and incubated with in vitro translated and 35S-methionine-labeled 3-Trcp2 for 1 h at 4° C.; this binding was later analyzed by autoradiography and Coomassie staining. In vitro serine phosphorylation of GST-IFNAR1 (analyzed by autoradiography or IB with pS535 antibody) by cell extracts or PKD preparations and tyrosine phosphorylation of GST-PKD2 by Tyk2 was carried out and analyzed as described elsewhere herein.
For other binding assays, the lysates from 293T cells (treated for various times with IFN-α, 2000 IU/mL) underwent two rounds of immunodepletion of CK1α as described elsewhere (Liu, et al., 2009, Mol Cell Biol 29(24):6401-12). GST-IFNAR1 proteins (wild type or S535,539A mutant that migrates slower on SDS-PAGE due to the presence of four additional amino acids in the linker (Liu et al., 2009, Cell Host Microbe 5(1):72-83)) were expressed and purified from bacterial cells using glutathione Sepharose. Purified bacterial proteins (2 μg) were incubated in the presence of CK1α-depleted cell lysates (5 μg), unlabeled ATP (0.5 mM) in total volume of 20 μL (containing 25 mM Tris-HCL pH 7.5, 5 mM MgCl2, 100 mM KCl, 1 mM EGTA, 1 mM Na3VO4, 0.1 mM DTT and 3.5% glycerol) for 30 min at 30° C. When indicated, the following kinase inhibitors were added to the reaction in I pi, of DMSO to the final concentration indicated: H89 (200 nM), BAY43-9006 (50 nM), Bis-I (25 nM), Gö6976 (25 nM), LY294002 (1.5 μM), SP600125 (100 nM), D4476 (400 nM), SB203580 (100 nM). The reactions were stopped by placing the tubes on ice and adding 150 μL of ice-cold binding buffer (PBS supplemented with 0.1% NP40 and 50 mM NaF) and incubated with glutathione Sepharose beads (20 μL) for 2 h at 4° C. The beads were then washed three times with 0.5 mL of binding buffer and incubated with 2 μL of in vitro translated and 35S-methionine-labeled13-Trcp2 for 1 h at 4° C. Beads were then washed three times with 1 mL of binding buffer, and the proteins were eluted using Laemmli buffer, resolved by SDS-PAGE, and analyzed by autoradiography and Coomassie staining.

Experiment [2] relates to IFNAR1 Ser535 phosphorylation. The class given is cell-based, human.
Experiment [3] deals with T1, PKD2 (Homo sapiens, UniProt Q9BZL6).
T1 sequence (Q9BZL6 1-878): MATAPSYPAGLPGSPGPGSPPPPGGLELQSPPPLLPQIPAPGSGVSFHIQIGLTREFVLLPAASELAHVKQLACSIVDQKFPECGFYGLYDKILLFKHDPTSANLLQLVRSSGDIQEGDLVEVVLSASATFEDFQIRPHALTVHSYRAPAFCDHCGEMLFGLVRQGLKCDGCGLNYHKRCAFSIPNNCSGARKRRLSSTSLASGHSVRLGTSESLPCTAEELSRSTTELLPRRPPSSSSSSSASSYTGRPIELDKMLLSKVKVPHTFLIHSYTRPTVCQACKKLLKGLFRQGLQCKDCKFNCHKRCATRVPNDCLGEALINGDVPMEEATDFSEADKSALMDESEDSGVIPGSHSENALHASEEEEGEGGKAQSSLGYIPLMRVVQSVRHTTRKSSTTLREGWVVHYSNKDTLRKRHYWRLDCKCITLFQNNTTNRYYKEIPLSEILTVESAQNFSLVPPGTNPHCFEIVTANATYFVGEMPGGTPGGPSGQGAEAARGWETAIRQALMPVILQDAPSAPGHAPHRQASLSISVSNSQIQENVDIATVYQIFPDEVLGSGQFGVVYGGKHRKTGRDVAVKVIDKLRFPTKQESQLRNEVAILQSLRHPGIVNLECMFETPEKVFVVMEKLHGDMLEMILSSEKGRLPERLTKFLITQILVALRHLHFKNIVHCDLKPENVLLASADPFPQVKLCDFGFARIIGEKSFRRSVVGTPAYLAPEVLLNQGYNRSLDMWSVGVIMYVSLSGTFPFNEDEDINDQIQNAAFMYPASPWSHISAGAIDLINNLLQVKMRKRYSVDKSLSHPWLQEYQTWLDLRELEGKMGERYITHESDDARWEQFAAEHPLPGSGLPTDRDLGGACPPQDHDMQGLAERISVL
Description: In vitro phosphorylation of GST-IFNAR1 on Ser535 by purified GST-PKD2. The class given is biochemical. Set-up: made in house; host or cells: 293T cells (human), transient expression, glutathione pull-down. Conditions: Gö6976 20-200 nM. On the procedure:
In vitro phosphorylation of GST-IFNAR1 by cell extracts or PKD preparations (via immunopurification or GST pulldown) was carried out in kinase buffer (50 mM Tris-HCl pH 7.4, 10 mM MgC12, and 2 mM DTT) with either 0.2 mM of unlabeled ATP or 10 μCi of γ-32P ATP for 20 min at 30° C. The products of this reaction were separated by SDS-PAGE and analyzed either by immunoblotting using anti-pS535 antibody or by autoradiography.

The test system of experiment [4] is IFNAR1 Ser535 phosphorylation. Description: IFN-α-induced Ser535 (degron) phosphorylation of IFNAR1 in cells, IP-immunoblot with anti-pS535. The class given is cell-based, human. As to the method: Immunoprecipitation and immunoblotting procedures are described elsewhere (Fuchs et al, 1999, Oncogene 18:2039-2046). Protein degradation was carried out by cycloheximide (CHX, used at 20 μg/ml) chase. IFNAR1 internalization assay was carried out using the Fluorescence-based assay as described elsewhere (Kumar et al., 2007, J Cell Biol 179:935-950). BAY 43-9006 was obtained as a gift. Recombinant human IFN-a2 (Roferon) was purchased from Roche. Other reagents or inhibitors were purchased from commercial vendors.
Antibodies against Flag, GST and j3-actin (Sigma), HA (12CA, Roche), CK1α, PICD1/2 (PKCμ), PKD3 (PKCν), Tyk2, intracellular domain of hIFNAR1 and PKR, (Santa Cruz), anti-pan-phospho-tyrosine (4G10), phospho-Stat1 and Stat1 (Cell signaling), phospho-S710 of PKD2 (Biosource), PKD2 (Bethyl Laboratories), mIFNAR1 (Leinco) and ubiquitin (FK2, Biomol) were purchased. AA3, GB8 and EAl2 antibodies which recognize endogenous IFNAR1 (Goldman et al., 1999) and antibodies against IFNAR1 phosphorylated on Ser535 (pS535; (Kumar et al., 2004, J Biol Chem 279:46614-46620)) were described previously. Secondary antibodies conjugated to horseradish peroxidase were purchased from Chemicon and LI-COR. Immunoprecipitation and immunoblotting procedures are described elsewhere (Fuchs et al, 1999, Oncogene 18:2039-2046). Protein degradation was carried out by cycloheximide (CHX) chase in the presence of CHX (20 μg/ml). Immunoblot detection and quantification were carried out using the LI-COR's Odyssey Infrared Imaging System.
In general terms: A western blot detects proteins with antibodies after separation by electrophoresis.

Experiment [5] deals with protein kinase D (PKD). Conditions: literature (Gschwendt et al., 1996; Sharlow et al., 2008); cited from earlier work.
For experiment [6], the system named is IFNAR1.
Experiment [7] relates to IFNAR1. It is filed as cell-based, human.
Experiment [8] relates to IFN signaling. The experiment in a line: Sangivamycin effect on IFN signaling (FIGS. 37-38).
Experiment [9] addresses T1, PKD2. The experiment in a line: Sangivamycin inhibition of PKD2 (FIGS. 37-38).
The test system of experiment [10] is IFNAR1 Ser535 phosphorylation. It is filed as cell-based, human. This is another data set of the same source.
Experiment [11] has as its system Stat1. The experiment in a line: Stat1 tyrosine phosphorylation in response to IFN-α, immunoblot. It is filed as cell-based, human.
In experiment [12] the test system is IFNAR1 Ser532 phosphorylation. The class given is cell-based, human.

For `CNC(=O)c1cc(Oc2ccc(NC(=O)Nc3ccc(Cl)c(C(F)(F)F)c3)cc2)ccn1` [BAY 43-9006], the “recruitment of β-Trcp2 to GST-IFNAR1 (phosphorylation-binding assay)” value (from here on “recruitment of β-Trcp2 to GST-IFNAR1”) in experiment [1] was “not inhibited”.
As for `CN(C)CCCn1cc(C2=C(c3c[nH]c4ccccc34)C(=O)NC2=O)c2ccccc21` [Bis I, bisindolylmaleimide I], the “recruitment of β-Trcp2 to GST-IFNAR1” value in experiment [1] is “did not affect”.
On to `NCCNS(=O)(=O)c1ccc(Cl)c2ccncc12` [CKI-7], for which, in experiment [2], the “ligand-independent Ser535 phosphorylation of Flag-IFNAR1” value is “decreased”.
As for `NC(=O)c1ccc(-c2nc(-c3ccc4c(c3)OCCO4)c(-c3ccccn3)[nH]2)cc1` [D4476], in experiment [1], the “recruitment of β-Trcp2 to GST-IFNAR1” value is reported as “noticeable inhibition”. Further, in experiment [2], the “Ser535 phosphorylation of IFNAR1 in response to TG” value is reported as “noticeably attenuated”, the “TG-induced phosphorylation of eIF2α” value is listed as “comparable induction”, the “eIF2a phosphorylation in VSV-infected cells” value is reported as “without affecting” and the “virus-induced S535 phosphorylation of IFNAR1” value is given as “markedly attenuated”. Moreover, the “virus-induced downregulation of IFNAR1” value in [2] was “markedly attenuated”.
On to `Cn1c2ccccc2c2c3c(c4c5ccccc5n(CCC#N)c4c21)CNC3=O` [Gö6976], for which the “recruitment of β-Trcp2 to GST-IFNAR1” value in [1] is “dramatic inhibition”. The “in vitro phosphorylation of GST-IFNAR1 on Ser535 by GST-PKD2” value in experiment [3] is “decreased the efficacy of IFNAR1 phosphorylation in a dose dependent manner”. In addition, the “induction of Ser535 phosphorylation of Flag-IFNAR1 by IFN-α” value in experiment [4] (U3A cells stably expressing Flag-IFNAR1, inhibitor pre-treatment) was “noticeably decreased”. In addition, the “basal Ser535 (degron) phosphorylation of overexpressed IFNAR1” value in experiment [4] (U3A cells stably expressing Flag-IFNAR1, no ligand) is on record as “neither the PKD inhibitor Gö6976 nor siRNA against PKD2 decreases”. The “inhibition of / specificity against PKD” value in experiment [5] is “shown to inhibit”.
Consider `O=S(=O)(NCCNC/C=C/c1ccc(Br)cc1)c1cccc2cnccc12` [H89], for which the “recruitment of β-Trcp2 to GST-IFNAR1” value in experiment [1] was “noticeable inhibition”.
On the same count and under the same terms, the same measure for `C[S+]([O-])c1ccc(-c2nc(-c3ccncc3)c(-c3ccc(F)cc3)[nH]2)cc1` (centres unmarked) [SB203580]: “not inhibited”.
On to `OO` [hydrogen peroxide], for which the “phosphorylation of endogenous IFNAR1 on Ser535 in the absence of IFN-α” value in [6] (HeLa cells) was “noticeably stimulated”.
Turning to `CN` [methylamine HCl], the “thapsigargin-induced decrease of IFNAR1 levels” value in experiment [7] (293T cells pre-treated with MA 20 mM 1 h) was “prevented”.
`NC(=O)c1cn([C@@H]2O[C@H](CO)[C@@H](O)[C@H]2O)c2ncnc(N)c12` [sangivamycin]: the “efficiency of IFN signaling” value in experiment [8] is “increases the efficiency of IFN signaling”. Besides, the “inhibition of PKD2” value in [9] is “inhibits”.
For `C/C=C(/C)C(=O)O[C@H]1C(C)=C2[C@H]([C@@H]1OC(=O)CCCCCCC)[C@@](C)(OC(C)=O)C[C@H](OC(=O)CCC)[C@@]1(O)[C@H]2OC(=O)[C@@]1(C)O` [thapsigargin], the “Ser535 phosphorylation of IFNAR1 in cells with wild type (WT) or catalytically inactive (KR) Tyk2” value in experiment [10] (2fTGH-derived Tyk2 WT vs KR cells, 30 min) was “comparable levels”. Moreover, in experiment [10] (293T cells, TG 1 μM 30 min, DTT 5 mM 30 min), the “phosphorylation of endogenous IFNAR1 on Ser535 in the absence of IFN” value is “stimulated”. Besides, in experiment [7] (293T cells treated with cycloheximide, TG 1 μM), the “half life of IFNAR1” value is given as “decreased”. Also, the “levels of IFNAR1” value in experiment [7] (human 293T cells, TG 1 μM, within two hours, absence of IFN) is “decreased”. Also, the “ubiquitination of IFNAR1” value in [7] (human fibrosarcoma cells with WT or KR Tyk2 and 293T cells) was “induced”. For the same molecule, the “tyrosine phosphorylation of Stat1 induced by IFN-α” value in experiment [11] (293T cells pre-treated with TG 1 μM 4 h, IFNα 50 IU/ml 30 min) was “noticeably decreased”. Also, in experiment [2] (293T cells, TG 1 μM 30 min), the “activation of PERK assessed via phosphorylation of eIF2α” value is reported as “caused activation of PERK”. For the same molecule, the “extent of ubiquitination of wild type IFNAR1” value in experiment [12] (Flag-IFNAR1 in 293T cells, TG 1 μM) is on record as “noticeably increased”. In addition, the “phosphorylation of endogenous IFNAR1 on Ser532 and Ser535” value in experiment [12] (HeLa cells, TG 1 μM 30 min) was “led to phosphorylation of endogenous IFNAR1 on both Ser532 and Ser535”.
For VEGF, in [6] (U3A cells stably expressing Flag-IFNAR1, VEGF 100 ng/ml), the “phosphorylation of Flag-IFNAR1 on Ser535” value was “increased”. In addition, the “ubiquitination of IFNAR1” value in [6] (U3A-Flag-IFNAR1 cells, VEGF treatment) is reported as “stimulated”. Also, in experiment [11] (human umbilical vein endothelial cells, VEGF 100 ng/ml 2 h, IFN-α 15 min), the “Stat1 phosphorylation in response to IFN-α” value is recorded as “noticeably inhibits”.
